Experimental data from PubChem BioAssay AID2060349 (Molecular Pharmacology Branch, DTP, NCI, 2025).

Tested on: 762968-020-R-J2-PDC spheroids viability
Experiment: Anticancer human tumor 762968-020-R-J2-PDC patient-derived colon carcinoma cell line growth inhibition [TAK]
Conditions: spheroids with HUVEC and MSC; for IC50: curve of first compound; for viability, T/C: stronger effect = lower value
Procedure, shortened: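 Tumor cells were grown as spheroids with HUVEC and hMSC (60:25:15) and treated with targeted agents combined with TAK-243 or ipatasertib. Drugs were tested in half-log steps down from near the clinical Cmax, or from 10 microM where Cmax was unknown.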

[1] = second compound 0.3 µM, first compound 0.0316 µM
[2] = second compound 0.3 µM, first compound 0.1 µM
[3] = second compound 0.3 µM, first compound 0.316 µM
[4] = second compound 0.3 µM, first compound 1 µM
[5] = second compound 0.3 µM, first compound 3.16 µM
[6] = second compound 0.3 µM, first compound 10 µM
[7] = second compound 0.949 µM, first compound 0.0316 µM
[8] = second compound 0.949 µM, first compound 0.1 µM
[9] = second compound 0.949 µM, first compound 0.316 µM
[10] = second compound 0.949 µM, first compound 1 µM
[11] = second compound 0.949 µM, first compound 3.16 µM
[12] = second compound 0.949 µM, first compound 10 µM
[13] = second compound 3 µM, first compound 0.0316 µM
[14] = second compound 3 µM, first compound 0.1 µM
[15] = second compound 3 µM, first compound 0.316 µM
[16] = second compound 3 µM, first compound 1 µM
[17] = second compound 3 µM, first compound 3.16 µM
[18] = second compound 3 µM, first compound 10 µM
[19] = second compound 9.49 µM, first compound 0.0316 µM
[20] = second compound 9.49 µM, first compound 0.1 µM
[21] = second compound 9.49 µM, first compound 0.316 µM
[22] = second compound 9.49 µM, first compound 1 µM
[23] = second compound 9.49 µM, first compound 3.16 µM
[24] = second compound 9.49 µM, first compound 10 µM
[25] = second compound 30 µM, first compound 0.0316 µM
[26] = second compound 30 µM, first compound 0.1 µM
[27] = second compound 30 µM, first compound 0.316 µM
[28] = second compound 30 µM, first compound 1 µM
[29] = second compound 30 µM, first compound 3.16 µM
[30] = second compound 30 µM, first compound 10 µM
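Note: spheroids exposed to drug for 7 days before readout.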
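Throughout, for viability, T/C: 100% = DMSO vehicle control wells.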

CC(C)(C)c1nc(-c2cccc(NS(=O)(=O)c3c(F)cccc3F)c2F)c(-c2ccnc(N)n2)s1 + CC(C)NCC(C(=O)N1CCN(c2ncnc3c2C(C)CC3O)CC1)c1ccc(Cl)cc1
IC50 (second compound 0.3 µM): > 10 µM | IC50 (second compound 0.949 µM): > 10 µM | IC50 (second compound 3 µM): > 10 µM | IC50 (second compound 9.49 µM): > 10 µM | IC50 (second compound 30 µM): > 10 µM | viability, T/C [1]: 92.8% | viability, T/C [2]: 91.4% | viability, T/C [3]: 84.8% | viability, T/C [4]: 84.3% | viability, T/C [5]: 92.4% | viability, T/C [6]: 94.7% | viability, T/C [7]: 93.9% | viability, T/C [8]: 90.2% | viability, T/C [9]: 84.6% | viability, T/C [10]: 86% | viability, T/C [11]: 88.4% | viability, T/C [12]: 92.8% | viability, T/C [13]: 95.6% | viability, T/C [14]: 87.1% | viability, T/C [15]: 94.8% | viability, T/C [16]: 85.9% | viability, T/C [17]: 92% | viability, T/C [18]: 95% | viability, T/C [19]: 92.5% | viability, T/C [20]: 86.4% | viability, T/C [21]: 83.9% | viability, T/C [22]: 79.9% | viability, T/C [23]: 72% | viability, T/C [24]: 92.5% | viability, T/C [25]: 81.4% | viability, T/C [26]: 80.5% | viability, T/C [27]: 81.6% | viability, T/C [28]: 74.1% | viability, T/C [29]: 74.5% | viability, T/C [30]: 93.5%

CC(C)n1nc(-c2ccc3oc(N)nc3c2)c2c(N)ncnc21 + CC(C)NCC(C(=O)N1CCN(c2ncnc3c2C(C)CC3O)CC1)c1ccc(Cl)cc1
IC50 (second compound 0.3 µM): > 0.1 µM | IC50 (second compound 0.949 µM): > 0.1 µM | IC50 (second compound 3 µM): > 0.1 µM | IC50 (second compound 9.49 µM): > 0.1 µM | IC50 (second compound 30 µM): > 0.1 µM | viability, T/C (second compound 0.3 µM, first compound 0.000316 µM): 96.5% | viability, T/C (second compound 0.3 µM, first compound 0.001 µM): 97.1% | viability, T/C (second compound 0.3 µM, first compound 0.00316 µM): 101% | viability, T/C (second compound 0.3 µM, first compound 0.01 µM): 91.8% | viability, T/C [1]: 87.5% | viability, T/C [2]: 72.9% | viability, T/C (second compound 0.949 µM, first compound 0.000316 µM): 96.9% | viability, T/C (second compound 0.949 µM, first compound 0.001 µM): 96.7% | viability, T/C (second compound 0.949 µM, first compound 0.00316 µM): 99.9% | viability, T/C (second compound 0.949 µM, first compound 0.01 µM): 99.3% | viability, T/C [7]: 87.4% | viability, T/C [8]: 73.2% | viability, T/C (second compound 3 µM, first compound 0.000316 µM): 99.5% | viability, T/C (second compound 3 µM, first compound 0.001 µM): 95.1% | viability, T/C (second compound 3 µM, first compound 0.00316 µM): 103% | viability, T/C (second compound 3 µM, first compound 0.01 µM): 93.4% | viability, T/C [13]: 92.3% | viability, T/C [14]: 65.7% | viability, T/C (second compound 9.49 µM, first compound 0.000316 µM): 94.4% | viability, T/C (second compound 9.49 µM, first compound 0.001 µM): 103% | viability, T/C (second compound 9.49 µM, first compound 0.00316 µM): 98.3% | viability, T/C (second compound 9.49 µM, first compound 0.01 µM): 93.4% | viability, T/C [19]: 79.1% | viability, T/C [20]: 63.5% | viability, T/C (second compound 30 µM, first compound 0.000316 µM): 83% | viability, T/C (second compound 30 µM, first compound 0.001 µM): 84.2% | viability, T/C (second compound 30 µM, first compound 0.00316 µM): 84.3% | viability, T/C (second compound 30 µM, first compound 0.01 µM): 81.9% | viability, T/C [25]: 74% | viability, T/C [26]: 63.6%

CCCS(=O)(=O)Nc1ccc(F)c(C(=O)c2c[nH]c3ncc(-c4ccc(Cl)cc4)cc23)c1F + CC(C)NCC(C(=O)N1CCN(c2ncnc3c2C(C)CC3O)CC1)c1ccc(Cl)cc1
IC50 (second compound 0.3 µM): > 100 µM | IC50 (second compound 0.949 µM): 23.6 µM | IC50 (second compound 3 µM): > 100 µM | IC50 (second compound 9.49 µM): > 100 µM | IC50 (second compound 30 µM): 17.9 µM | viability, T/C [3]: 94.5% | viability, T/C [4]: 95.2% | viability, T/C [5]: 94.4% | viability, T/C [6]: 72.3% | viability, T/C (second compound 0.3 µM, first compound 31.6 µM): 13.6% | viability, T/C (second compound 0.3 µM, first compound 100 µM): 97.5% | viability, T/C [9]: 89.9% | viability, T/C [10]: 93.2% | viability, T/C [11]: 94.6% | viability, T/C [12]: 57.5% | viability, T/C (second compound 0.949 µM, first compound 31.6 µM): 1.16% | viability, T/C (second compound 0.949 µM, first compound 100 µM): 93.7% | viability, T/C [15]: 97.6% | viability, T/C [16]: 93.3% | viability, T/C [17]: 101% | viability, T/C [18]: 71.3% | viability, T/C (second compound 3 µM, first compound 31.6 µM): 0.49% | viability, T/C (second compound 3 µM, first compound 100 µM): 97.8% | viability, T/C [21]: 91.9% | viability, T/C [22]: 94.1% | viability, T/C [23]: 89.1% | viability, T/C [24]: 70.2% | viability, T/C (second compound 9.49 µM, first compound 31.6 µM): 18.5% | viability, T/C (second compound 9.49 µM, first compound 100 µM): 105% | viability, T/C [27]: 77.2% | viability, T/C [28]: 90.9% | viability, T/C [29]: 87.4% | viability, T/C [30]: 53.6% | viability, T/C (second compound 30 µM, first compound 31.6 µM): 2.13% | viability, T/C (second compound 30 µM, first compound 100 µM): 90.7%
